# Marks after values point to notes of the source that are not given here.
# Assay: In vivo CT of filler nodule volume, density and 3D shape after test solutions 0-8 (Example 3)
# Details: for Change in Volume as percent of Injected Volume, Day 14/15: Example 3 (Day 14); for Change in Volume as percent of Injected Volume, Day 14/15 / Change in Volume as percent of Injected Volume, Day 0 + 2 h / Change in Volume as percent of Injected Volume, Day 0 + 4 h / Change in Volume as percent of Injected Volume, Day 1 / Change in Volume as percent of Injected Volume, Day 3 / Change in Volume as percent of Injected Volume, Day 7 / Change in Volume as percent of Injected Volume, Day 0 + 1 h 15: mean; for Change in Volume as percent of Injected Volume, Day 0 + 2 h / Change in Volume as percent of Injected Volume, Day 0 + 4 h / Change in Volume as percent of Injected Volume, Day 1 / Change in Volume as percent of Injected Volume, Day 3 / Change in Volume as percent of Injected Volume, Day 7 / Change in Volume as percent of Injected Volume, Day 0 + 1 h 15: Example 3; for Change in Volume as percent of Injected Volume, Day 0 + 1 h 15: 1.5 mL solution into 500 μl nodule; for effect on volume at the filler injection site: after 7 and 14 days, vs untreated
# Description: One hour after filler injections (T=1 h), 1.5 mL of selected solutions (Table 5, solutions 0-8, test items, solution 0 is normal saline and not hyperosmotic) were injected each into 9 dermal filler nodules in the right flank (ventral area).
# A total of 7 CT-scans were performed at 1 h 15, 2 h, 4 h, 1 day (24 h), 3, 7 and 14 days after injection of the dermal filler. The clinical state of each animal is assessed once a week by body weight measurement and clinical observations.
# The 10 SC injections of dermal filler on Day 0 were performed in the ventral area, (five nodules on each flank of the ventral area) for each pig. For each SC nodule, a theoretical volume of 500 μl was administered. One hour (±5 min) after injection of dermal filler, SC injection of the different solutions (prepared the day before) were performed into nine (9) nodules of dermal. For each SC nodule, a theoretical volume of 1.5 mL of test solution was administered.
# The X-ray computed tomography acquisitions were performed with the Computed Tomography Scanner BrightSpeed 16 (General Electric). In order to measure the volume and the mean density and to visualize the 3D shape of the dermal filler (Radiesse® filler with or without test solution) injected, in vivo CT-scans were performed on Day 0: 1 h 15 (±10 min), 2 h (±15 min) and 4 h (±20 min), on Day 1 (24 h+1 h), Day 3, Day 7 and Day 14.
# During CT acquisition on Day 0, the pigs received an IM injection of anesthesia. The animals were maintained under anesthesia until the CT acquisition at T=2 h (2 h after dermal filler injection session). Between these CT acquisitions, the animals were under surveillance in the recovery room on a heating mat with fluidotherapy. At the end of the CT acquisition at T=2 h, the pigs received a tattoo around each injected site. During the CT acquisitions at T=4 h and on Days 1, 3, 7 and 14, pigs received an IM injection of anesthesia. For the CT-scans, animals were positioned in dorsal recumbency and acquisitions were centered on the injection sites. The parameters of the CT-scan are described in Table 5.
# The CT acquisition was analyzed with the software Avizo version 9.2.0. The objective of this analysis was to assess the degradation over time of the dermal filler injected by SC route after injection of different test solutions.
# An image segmentation processing was performed on each CT acquisition. First, a manual pre-segmentation was performed around each nodule in order to roughly isolate the voxels corresponding to dermal filler product, which defined a Region of Interest (ROI). Second, an automatic segmentation was applied on the previously defined ROI using a global grey level thresholding procedure.
# On day 0, a farm pig received ten (10) SC injections of Radiesse® dermal filler 0.5 mL (ventral area) (10 nodules in total). One hour after filler injections (T=1 h), 1.5 mL of one of eight test hyperosmotic solutions (1-8 solutions, Table 5) was injected at an injection site. One injection site was untreated and one injection site was treated with normal saline (0.9% wt/v NaCl).
# [1] = listed as Hyperosmotic Saline (sol 1)
SMILES,"Change in Volume as percent of Injected Volume, Day 14/15","Change in Volume as percent of Injected Volume, Day 0 + 2 h","Change in Volume as percent of Injected Volume, Day 0 + 4 h","Change in Volume as percent of Injected Volume, Day 1","Change in Volume as percent of Injected Volume, Day 3","Change in Volume as percent of Injected Volume, Day 7","Change in Volume as percent of Injected Volume, Day 0 + 1 h 15",effect on volume at the filler injection site,"Change in Volume as percent of Injected Volume, Day 14/15 [1]","Change in Volume as percent of Injected Volume, Day 0 + 1 h 15 [1]","Change in Volume as percent of Injected Volume, Day 0 + 2 h [1]","Change in Volume as percent of Injected Volume, Day 0 + 4 h [1]","Change in Volume as percent of Injected Volume, Day 1 [1]","Change in Volume as percent of Injected Volume, Day 3 [1]","Change in Volume as percent of Injected Volume, Day 7 [1]",effect on volume at the filler injection site (listed as hyperosmotic NaCl)
"OC[C@H]1O[C@@](CO)(O[C@H]2O[C@H](CO)[C@@H](O)[C@H](O)[C@H]2O)[C@@H](O)[C@@H]1O [sol 8, Sucrose]",180.45%,167.63%,190.95%,202.96%,207.85%,199.72%,167.87* percent,trend to decrease volume of filler,–,–,–,–,–,–,–,–
"O.O.O.O.O.O.O.O=S(=O)([O-])[O-].[Mg+2] [sol 5, Magnesium sulfate heptahydrate]",186.95%,159.33%,158.84* percent,188.43%,206.26* percent,202.32%,170.49* percent,–,–,–,–,–,–,–,–,–
"CC(=O)[O-].[Na+] [sol 3, Sodium acetate]",176.61* percent,154.89%,165.88%,202.12%,197.50* percent,189.13* percent,152.73%,–,–,–,–,–,–,–,–,–
"[Cl-].[Na+] [sol 1, Sodium chloride]",–,–,–,–,–,–,–,–,175.89* percent,161.28* percent,157.58%,164.59* percent,202.75%,199.27%,192.06* percent,significant decreased volume
"O.O.O=P([O-])(O)O.[Na+] [sol 2, Sodium dihydrogen phosphate dihydrate]",179.72* percent,151.58%,164.27%,198.42%,201.11%,201.97%,156.57%,–,–,–,–,–,–,–,–,–
"OCC(O)CO [sol 6, Glycerol]",173.93* percent,156.43%,184.92%,200.32%,197.65* percent,197.62* percent,151.48%,–,–,–,–,–,–,–,–,–
